Experiments:
[1] = biological target: T1, HCMV polymerase (Human cytomegalovirus, UniProt P08546); experiment: HCMV polymerase scintillation proximity assay; type: biochemical
T1 construct: made in house; host or cells: SF-9 insect cells (recombinant baculovirus)
Description: (§1) The HCMV polymerase assay is performed using a scintillation proximity assay (SPA) as described in several references, such as N.D. Cook, et al., Pharmaceutical Manufacturing International, pages 49-53 (1992), K Takeuchi, Laboratory Practice, September issue (1992); U.S. Pat. No. 4,568,649 (1986); which are incorporated by reference herein. Reactions are performed in 96-well plates. The assay is conducted in 100 μl volume with 5.4 mM HEPES (pH 7.5), 11.7 mM KCl, 4.5 mM MgCl2, 0.36 mg/ml BSA, and 90 nM ^3H-dTTP. Assays are run with and without CHAPS, (3-[(3-Cholamidopropyl)-dimethylammonio]-1-propane-sulfonate) at a final concentration of 2 mM. HCMV polymerase is diluted in enzyme dilution buffer containing 50% glycerol, 250 mM NaCl, 10 mM HEPES (pH 7.5), […] BSA, and 0.01% sodium azide. The HCMV polymerase, which is expressed in recombinant baculovirus-infected SF-9 cells and purified according to literature procedures, is added at 10% (or 10 μl) of the final reaction volume, i.e., 100 μl. Compounds are diluted in 50% DMSO and 10 μl are added to each well. Control wells contain an equivalent concentration of DMSO. Unless noted otherwise, reactions are initiated via the addition of 6 nM biotinylated poly(dA)-oligo(dT) template/primer to reaction mixtures containing the enzyme, substrate, and compounds of interest. Plates are incubated in a 25° C. or 37° C. H2O bath and terminated via the addition of 40 μl/reaction of 0.5 M EDTA (pH 8) per well. Reactions are terminated within the time-frame during which substrate incorporation is linear and varied depending upon the enzyme and conditions used, Le., 30 min. for HCMV polymerase. Ten (10) μl of streptavidin-SPA beads (20 mg/ml in PBS/10% glycerol) are added following termination of the reaction. Plates are incubated 10 min. at 37° C., then equilibrated to room temperature, and counted on a Packard Topcount. Linear regressions are performed and IC50's are calculated using computer software.
(§2) A modified version of the above HCMV polymerase assay is performed as described above, but with the following changes: Compounds are diluted in 100% DMSO until final dilution into assay buffer. In the previous assay, compounds are diluted in 50% DMSO. 4.5 mM Dithiothreitol (DTT) is added to the polymerase buffer.
(§3) All results are listed as Polymerase IC50(μM) values. In Table 1, the term “n.d.” refers to activity data not determined.

[2] = biological target: HSV polymerase (Human herpesvirus 1, UniProt P04293); experiment: HSV polymerase assay (SPA); type: biochemical
HSV polymerase, sequence (P04293 whole entry): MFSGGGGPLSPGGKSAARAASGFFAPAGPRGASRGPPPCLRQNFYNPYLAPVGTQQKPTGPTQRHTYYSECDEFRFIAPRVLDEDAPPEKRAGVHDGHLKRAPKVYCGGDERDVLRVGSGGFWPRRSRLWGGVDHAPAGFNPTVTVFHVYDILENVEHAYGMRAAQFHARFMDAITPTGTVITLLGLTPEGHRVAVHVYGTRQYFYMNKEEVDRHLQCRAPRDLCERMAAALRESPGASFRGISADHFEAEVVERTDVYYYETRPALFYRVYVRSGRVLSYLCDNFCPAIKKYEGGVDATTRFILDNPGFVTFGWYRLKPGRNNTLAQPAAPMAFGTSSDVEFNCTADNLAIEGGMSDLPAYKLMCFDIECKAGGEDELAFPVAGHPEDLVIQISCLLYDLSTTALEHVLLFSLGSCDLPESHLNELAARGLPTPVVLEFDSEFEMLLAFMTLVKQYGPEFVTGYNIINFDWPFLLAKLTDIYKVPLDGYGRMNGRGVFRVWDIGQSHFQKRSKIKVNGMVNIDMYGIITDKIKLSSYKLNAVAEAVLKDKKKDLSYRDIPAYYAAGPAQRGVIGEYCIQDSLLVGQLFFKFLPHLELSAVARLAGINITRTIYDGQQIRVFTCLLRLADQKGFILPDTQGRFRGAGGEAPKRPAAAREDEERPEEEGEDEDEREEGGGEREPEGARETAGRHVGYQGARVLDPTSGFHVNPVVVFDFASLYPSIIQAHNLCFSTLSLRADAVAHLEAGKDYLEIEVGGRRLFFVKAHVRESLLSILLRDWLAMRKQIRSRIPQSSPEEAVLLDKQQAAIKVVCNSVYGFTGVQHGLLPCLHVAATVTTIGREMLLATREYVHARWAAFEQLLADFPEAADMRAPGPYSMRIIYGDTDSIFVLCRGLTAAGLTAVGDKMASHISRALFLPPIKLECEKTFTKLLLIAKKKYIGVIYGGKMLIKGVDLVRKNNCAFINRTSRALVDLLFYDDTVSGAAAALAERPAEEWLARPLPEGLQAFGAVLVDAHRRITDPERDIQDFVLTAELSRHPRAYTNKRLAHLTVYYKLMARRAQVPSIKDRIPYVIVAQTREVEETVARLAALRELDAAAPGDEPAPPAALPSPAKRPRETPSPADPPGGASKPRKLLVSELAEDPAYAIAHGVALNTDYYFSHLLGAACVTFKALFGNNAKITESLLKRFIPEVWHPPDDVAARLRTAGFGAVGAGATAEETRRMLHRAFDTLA
Description: [Worded in the source for another target; used here, by the source, with some conditions changed.] as §1, §2, §3

[3] = biological target: VZV polymerase (Varicella-zoster virus, UniProt P09252); experiment: VZV polymerase assay (SPA); type: biochemical
VZV polymerase, sequence (P09252 whole entry): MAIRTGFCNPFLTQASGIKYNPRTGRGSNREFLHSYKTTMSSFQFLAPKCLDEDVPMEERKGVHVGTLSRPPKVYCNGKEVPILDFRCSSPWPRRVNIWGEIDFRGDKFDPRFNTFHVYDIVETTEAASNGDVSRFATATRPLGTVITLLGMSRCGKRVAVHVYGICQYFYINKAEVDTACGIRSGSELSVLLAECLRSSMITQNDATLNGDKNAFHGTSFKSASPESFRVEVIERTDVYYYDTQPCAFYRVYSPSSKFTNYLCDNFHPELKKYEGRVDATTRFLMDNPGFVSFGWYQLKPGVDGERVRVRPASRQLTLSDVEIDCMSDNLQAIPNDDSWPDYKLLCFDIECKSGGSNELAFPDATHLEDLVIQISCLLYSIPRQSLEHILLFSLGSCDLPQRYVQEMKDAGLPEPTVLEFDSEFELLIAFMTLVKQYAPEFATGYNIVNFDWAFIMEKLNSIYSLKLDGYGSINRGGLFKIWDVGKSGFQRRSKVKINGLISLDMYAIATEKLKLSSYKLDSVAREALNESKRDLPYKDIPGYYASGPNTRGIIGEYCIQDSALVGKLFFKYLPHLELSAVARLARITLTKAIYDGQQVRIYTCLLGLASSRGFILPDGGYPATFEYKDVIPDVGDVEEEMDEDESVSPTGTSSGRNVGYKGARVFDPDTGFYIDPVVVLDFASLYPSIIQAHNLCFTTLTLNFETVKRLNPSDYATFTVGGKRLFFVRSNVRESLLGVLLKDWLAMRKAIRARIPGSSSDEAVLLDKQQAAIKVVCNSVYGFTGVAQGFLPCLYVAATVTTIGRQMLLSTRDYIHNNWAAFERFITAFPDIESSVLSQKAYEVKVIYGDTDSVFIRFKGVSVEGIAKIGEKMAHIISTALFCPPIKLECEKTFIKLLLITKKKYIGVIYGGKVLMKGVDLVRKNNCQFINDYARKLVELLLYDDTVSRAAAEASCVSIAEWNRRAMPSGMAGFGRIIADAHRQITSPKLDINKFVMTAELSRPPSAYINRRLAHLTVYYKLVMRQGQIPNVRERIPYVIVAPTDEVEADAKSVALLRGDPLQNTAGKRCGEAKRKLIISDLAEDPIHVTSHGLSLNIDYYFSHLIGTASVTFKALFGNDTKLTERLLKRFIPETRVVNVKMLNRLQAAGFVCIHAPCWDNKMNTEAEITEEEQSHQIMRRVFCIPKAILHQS
Description: [Worded in the source for another target; used here, by the source, with some conditions changed.] as §1, with “Control wells contain an equivalent concentration of DMSO. Unless noted otherwise, reactions are initiated via the addition of 6 nM biotinylated poly(dA)-oligo(dT) template/primer to reaction mixtures containing the enzyme, substrate, and compounds of interest. Plates are incubated in a 25° C. or 37° C. H2O bath and terminated via the addition of 40 μl/reaction of 0.5 M EDTA (pH 8) per well. Reactions are terminated within the time-frame during which substrate incorporation is linear and varied depending upon the enzyme and conditions used, Le., 30 min. for HCMV polymerase. Ten (10) μl of streptavidin-SPA beads (20 mg/ml in PBS/10% glycerol) are added following termination of the reaction.” left out, “software. […]” for “software.”
as §3

T1 sequence (P08546 whole entry): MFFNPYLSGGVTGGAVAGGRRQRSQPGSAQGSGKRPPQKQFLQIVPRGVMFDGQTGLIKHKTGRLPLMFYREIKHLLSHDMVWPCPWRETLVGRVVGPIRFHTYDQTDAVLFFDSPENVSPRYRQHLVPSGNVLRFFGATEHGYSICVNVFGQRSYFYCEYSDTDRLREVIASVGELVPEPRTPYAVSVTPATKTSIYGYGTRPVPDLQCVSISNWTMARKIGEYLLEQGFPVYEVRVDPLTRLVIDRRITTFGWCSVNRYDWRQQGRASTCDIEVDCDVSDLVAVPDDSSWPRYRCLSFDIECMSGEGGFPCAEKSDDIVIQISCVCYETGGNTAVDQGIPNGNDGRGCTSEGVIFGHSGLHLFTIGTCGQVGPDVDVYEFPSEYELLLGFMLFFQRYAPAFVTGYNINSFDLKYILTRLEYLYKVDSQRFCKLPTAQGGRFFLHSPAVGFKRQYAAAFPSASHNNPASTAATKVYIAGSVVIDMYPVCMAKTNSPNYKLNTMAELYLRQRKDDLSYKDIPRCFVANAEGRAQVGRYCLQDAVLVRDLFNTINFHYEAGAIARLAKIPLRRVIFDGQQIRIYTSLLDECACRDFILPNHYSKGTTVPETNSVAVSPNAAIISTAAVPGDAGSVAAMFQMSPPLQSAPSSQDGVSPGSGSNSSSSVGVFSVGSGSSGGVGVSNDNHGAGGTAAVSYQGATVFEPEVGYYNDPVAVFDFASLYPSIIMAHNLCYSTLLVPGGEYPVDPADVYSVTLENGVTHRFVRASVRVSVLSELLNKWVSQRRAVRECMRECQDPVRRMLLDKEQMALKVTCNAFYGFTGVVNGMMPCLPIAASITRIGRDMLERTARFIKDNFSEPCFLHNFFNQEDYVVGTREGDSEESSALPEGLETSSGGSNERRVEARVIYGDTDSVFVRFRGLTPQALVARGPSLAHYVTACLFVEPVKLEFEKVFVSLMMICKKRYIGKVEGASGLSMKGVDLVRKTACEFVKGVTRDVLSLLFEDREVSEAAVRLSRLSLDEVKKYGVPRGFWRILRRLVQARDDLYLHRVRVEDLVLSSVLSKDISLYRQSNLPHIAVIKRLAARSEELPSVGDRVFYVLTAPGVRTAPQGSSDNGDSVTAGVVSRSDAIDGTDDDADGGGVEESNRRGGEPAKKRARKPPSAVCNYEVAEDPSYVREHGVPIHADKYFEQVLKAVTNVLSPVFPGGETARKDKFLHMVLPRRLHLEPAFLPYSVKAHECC

| IC50 [1] [nM] | IC50 [2] [nM] | melting point [°C] | IC50 [3] [nM] | SMILES |
| --- | --- | --- | --- | --- |
| 120 | 720 | 158 to 162 | 210 | Cn1cc(C(=O)NCc2ccc(Cl)cc2)c(=O)c2cc(CN3CCC[C@@H]3[C@@H](O)c3ccccc3)sc21 (relative stereo) [Example 2, N-(4-Chlorobenzyl)-2-(((2R*2)-(S*)-hydroxy(phenyl)methyl)pyrrolidin-1-yl)methyl)-7-methyl-4-oxo-4,7-dihydrothieno[2,3-b]pyridine-5-carboxamide] |
| 24 | 22 | 129 to 134 |  | Cn1cc(C(=O)NCc2ccc(Cl)cc2)c(=O)c2cc(CN3CCOC[C@@H]3[C@@H](O)c3ccccc3)sc21 [Example 15, N-(4-Chlorobenzyl)-2-(((3R)-3-((S)hydroxy(phenyl)methyl)morpholin-4-yl)-methyl)-7-methyl-4-oxo-4,7-dihydrothieno[2,3-b]pyridine-5-carboxamide] |
| 1270 | 2970 | 171 to 172 |  | Cn1cc(C(=O)NCc2ccc(Cl)cc2)c(=O)c2cc(CN3CCOC[C@@H]3[C@H](O)c3ccccc3)sc21 [Example 14, N-(4-Chlorobenzyl)-2-(((3R)-3-((R)-hydroxy(phenyl)methyl)morpholin-4-yl)-methyl)-7-methyl-4-oxo-4,7-dihydrothieno[2,3-b]pyridine-5-carboxamide] |
| 450 | 1000 |  | 420 | Cn1cc(C(=O)NCc2ccc(Cl)cc2)c(=O)c2cc(CN3CCOC[C@@H]3Cc3ccccc3)sc21 [Example 1, 2-(((3S)-3-Benzylmorpholin-4-yl)methyl)-N-(4-chlorobenzyl)-7-methyl-4-oxo-4,7-dihydrothieno[2,3-b]pyridine-5-carboxamide] |

From patent publication US6831081B2, “4-Oxo-4,7-dihydrothieno[2,3-b]pyridine-5-carboxamides as antiviral agents” (Pharmacia & Upjohn, priority 2002, dated 2004)
